Measured values reported in ChEMBL document CHEMBL5226375, “Synthesis and Comprehensive in Vivo Activity Profiling of Olean-12-en-28-ol, 3β-Pentacosanoate in Experimental Autoimmune Encephalomyelitis: A Natural Remyelinating and Anti-Inflammatory Agent” (J Nat Prod, 2023).
Activity calls are given as the source filed them. The calls are words filed in the database; no cut-off is given here.

Tests used:
Mus musculus [1] = experiment: Anti-inflammatory activity against MOG35-55-induced experimental autoimmune encephalomyelitis C57BL/6 mouse model assessed as fold change in H2EB1 (HLA-DRB1) gene expression in brain at 300 mg/kg/day, ig for 14 days starting from 12th day of immunization by RT-qPCR analysis relative to control; assay type: functional; conditions: time 14 day
Mus musculus [2] = experiment: Anti-inflammatory activity against MOG35-55-induced experimental autoimmune encephalomyelitis C57BL/6 mouse model assessed as methylation of CpG sites of IL17A gene promoter in brain at 600 mg/kg, ig for 14 days starting from 12th day of immunization by PCR analysis (reference value: 58 +/-6%); assay type: functional; conditions: time 14 day
Mus musculus [3] = experiment: Anti-inflammatory activity against MOG35-55-induced experimental autoimmune encephalomyelitis C57BL/6 mouse model assessed as fold change in STAT3 gene expression in brain at 600 mg/kg/day, ig for 14 days starting from 12th day of immunization by RT-qPCR analysis relative to control; assay type: functional; conditions: time 14 day
Mus musculus [4] = experiment: Anti-inflammatory activity against MOG35-55-induced experimental autoimmune encephalomyelitis C57BL/6 mouse model assessed as fold change in TNF-alpha gene expression in brain at 600 mg/kg/day, ig for 14 days starting from 12th day of immunization by RT-qPCR analysis relative to control; assay type: functional; conditions: time 14 day
Mus musculus [5] = experiment: Anti-inflammatory activity against MOG35-55-induced experimental autoimmune encephalomyelitis C57BL/6 mouse model assessed as reduction in CXCL9 protein expression in brain at 300 to 600 mg/kg/day, ig for 14 days starting from 12th day of immunization by western blot analysis; assay type: functional, organism-based; conditions: dose 300-600 mg/kg/day, time 14.0 day
Mus musculus [6] = experiment: Anti-inflammatory activity against MOG35-55-induced experimental autoimmune encephalomyelitis C57BL/6 mouse model assessed as fold change in CD4 gene expression in brain at 300 mg/kg/day, ig for 14 days starting from 12th day of immunization by RT-qPCR analysis relative to control; assay type: functional; conditions: time 14 day
Mus musculus [7] = experiment: Anti-inflammatory activity against MOG35-55-induced experimental autoimmune encephalomyelitis C57BL/6 mouse model assessed as increase in brain IL-10 level at 600 mg/kg/day, ig for 14 days starting from 12th day of immunization by ELISA; assay type: functional, organism-based; conditions: time 14.0 day
Mus musculus [8] = experiment: Anti-inflammatory activity against MOG35-55-induced experimental autoimmune encephalomyelitis C57BL/6 mouse model assessed as fold change in MBP gene expression in brain at 600 mg/kg/day, ig for 14 days starting from 12th day of immunization by RT-qPCR analysis relative to control; assay type: functional; conditions: time 14 day
Mus musculus [9] = experiment: Anti-inflammatory activity against MOG35-55-induced experimental autoimmune encephalomyelitis C57BL/6 mouse model assessed as methylation of CpG sites of IL13 gene promoter in brain at 600 mg/kg, ig for 14 days starting from 12th day of immunization by PCR analysis (reference value: 57.3 +/-8%); assay type: functional; conditions: time 14 day
Mus musculus [10] = experiment: Anti-inflammatory activity against MOG35-55-induced experimental autoimmune encephalomyelitis C57BL/6 mouse model assessed as fold change in BCL2 gene expression in brain at 300 mg/kg/day, ig for 14 days starting from 12th day of immunization by RT-qPCR analysis relative to control; assay type: functional; conditions: time 14 day
Mus musculus [11] = experiment: Anti-inflammatory activity against MOG35-55-induced experimental autoimmune encephalomyelitis C57BL/6 mouse model assessed as methylation of CpG sites of IL11 gene promoter in brain at 600 mg/kg, ig for 14 days starting from 12th day of immunization by PCR analysis (reference value: 61.1 +/-4%); assay type: functional; conditions: time 14 day
Mus musculus [12] = experiment: Anti-inflammatory activity against MOG35-55-induced experimental autoimmune encephalomyelitis C57BL/6 mouse model assessed as reduction in serum […] cytokine level by measuring reduction in IL-17 level at 600 mg/kg/day, ig for 14 days starting from 12th day of immunization by ELISA; assay type: functional, organism-based; conditions: time 14.0 day
Mus musculus [13] = experiment: Anti-inflammatory activity against MOG35-55-induced experimental autoimmune encephalomyelitis C57BL/6 mouse model assessed as reduction in MMP9 protein expression in brain at 300 to 600 mg/kg/day, ig for 14 days starting from 12th day of immunization by western blot analysis relative to control; assay type: functional; conditions: dose 300-600 mg/kg/day, time 14 day
[14] = Stability of the compound in THF/phosphate buffer at pH 6.5 incubated for 2 hrs under stirring conditions by 1H-NMR analysis; assay type: physicochemical; conditions: pH 6.5, 2 h
Mus musculus [15] = experiment: Anti-inflammatory activity against MOG35-55-induced experimental autoimmune encephalomyelitis C57BL/6 mouse model assessed as reduction in serum […] cytokine level by measuring reduction in IL-17 level at 0.3 mg/kg/day, ig for 14 days starting from 12th day of immunization by ELISA; assay type: functional, organism-based; conditions: time 14.0 day
Mus musculus [16] = experiment: Anti-inflammatory activity against MOG35-55-induced experimental autoimmune encephalomyelitis C57BL/6 mouse model assessed as reduction in serum chemokines level by measuring reduction in CXCL1 level at 0.3 mg/kg/day, ig for 14 days starting from 12th day of immunization by ELISA; assay type: functional, organism-based; conditions: time 14.0 day
Mus musculus [17] = experiment: Anti-inflammatory activity against MOG35-55-induced experimental autoimmune encephalomyelitis C57BL/6 mouse model assessed as reduction in serum Th1 cytokine level by measuring reduction in TNF-alpha level at 0.3 mg/kg/day, ig for 14 days starting from 12th day of immunization by ELISA; assay type: functional, organism-based; conditions: time 14.0 day
Mus musculus [18] = experiment: Anti-inflammatory activity against MOG35-55-induced experimental autoimmune encephalomyelitis C57BL/6 mouse model assessed as fold change in IL6 gene expression in brain at 0.15 mg/kg/day, ig for 14 days starting from 12th day of immunization by RT-qPCR analysis relative to control; assay type: functional; conditions: time 14 day
Mus musculus [19] = experiment: Anti-inflammatory activity against MOG35-55-induced experimental autoimmune encephalomyelitis C57BL/6 mouse model assessed as fold change in MAG gene expression in brain at 0.15 mg/kg/day, ig for 14 days starting from 12th day of immunization by RT-qPCR analysis relative to control; assay type: functional; conditions: time 14 day
Mus musculus [20] = experiment: Anti-inflammatory activity against MOG35-55-induced experimental autoimmune encephalomyelitis C57BL/6 mouse model assessed as reduction in serum chemokines level by measuring reduction in IL-3 level at 0.3 mg/kg/day, ig for 14 days starting from 12th day of immunization by ELISA; assay type: functional, organism-based; conditions: time 14.0 day
Mus musculus [21] = experiment: Anti-inflammatory activity against MOG35-55-induced experimental autoimmune encephalomyelitis C57BL/6 mouse model assessed as fold change in CCL5 gene expression in brain at 0.3 mg/kg/day, ig for 14 days starting from 12th day of immunization by RT-qPCR analysis relative to control; assay type: functional; conditions: time 14 day
Mus musculus [22] = experiment: Anti-inflammatory activity against MOG35-55-induced experimental autoimmune encephalomyelitis C57BL/6 mouse model assessed as fold change in CD4 gene expression in brain at 0.3 mg/kg/day, ig for 14 days starting from 12th day of immunization by RT-qPCR analysis relative to control; assay type: functional; conditions: time 14 day
Mus musculus [23] = experiment: Anti-inflammatory activity against MOG35-55-induced experimental autoimmune encephalomyelitis C57BL/6 mouse model assessed as fold change in APP gene expression in brain at 0.15 mg/kg/day, ig for 14 days starting from 12th day of immunization by RT-qPCR analysis relative to control; assay type: functional; conditions: time 14 day

CCCCCCCCCCCCCCCCCCCCCCCCC(=O)O[C@H]1CC[C@]2(C)[C@H]3CC=C4[C@@H]5CC(C)(C)CC[C@]5(CO)CC[C@@]4(C)[C@]3(C)CC[C@H]2C1(C)C
fold change (FC) (Mus musculus [1]): 2.83
Activity (Mus musculus [2]): 68.3%
fold change (FC) (Mus musculus [3]): 1.32
fold change (FC) (Mus musculus [4]): 1.52
Activity (Mus musculus [5]): Active
fold change (FC) (Mus musculus [6]): 2.55
Activity (Mus musculus [7]): Active
fold change (FC) (Mus musculus [8]): 3.8
Activity (Mus musculus [9]): 47.9%
fold change (FC) (Mus musculus [10]): 1.76
Activity (Mus musculus [11]): 41.4%
Activity (Mus musculus [12]): Active
fold change (FC) (Mus musculus [13]): 2
Stability [14]: Stable

CCCCCCCCc1ccc(CCC(N)(CO)CO)cc1 [FINGOLIMOD]
Activity (Mus musculus [15]): Active
Activity (Mus musculus [16]): Active
Activity (Mus musculus [17]): Active
fold change (FC) (Mus musculus [18]): 4.34
fold change (FC) (Mus musculus [19]): -1.85
Activity (Mus musculus [20]): Active
fold change (FC) (Mus musculus [21]): -1.06
fold change (FC) (Mus musculus [22]): 2.12
fold change (FC) (Mus musculus [23]): 1.77
